From PMC5773577, “Novel Miniature Membrane Active Lipopeptidomimetics against Planktonic and Biofilm Embedded Methicillin-Resistant Staphylococcus aureus” (Scientific Reports, 2018)
In brackets after ≈: the same amount, converted by molar mass. Like-named read-outs stand apart in the source and are kept apart here.

Columns and labels:
[1] = tested on: stationary phase MRSA ATCC 33591; assay: Bacterial killing kinetics, stationary phase cells in nutrient-depleted MHB medium; type: cell-based, Staphylococcus aureus; details: 24 h
Description: The kinetics of bacterial killing was determined against MRSA ATCC 33591 strain using drop plate method as described previously with slight modifications[51],[67],[70],[71]. The experiment was performed against exponential phase MRSA in normal medium and stationary phase MRSA in nutrient-depleted medium. For the preparation of nutrient-depleted medium, the primary MRSA ATCC 33591 culture in MHB medium was allowed to grow for 18 h at 37 °C and the cells were removed by centrifugation. The cell pellet was used for stationary phase culture and the spent medium supernatant was used as a nutrient-depleted medium. For obtaining exponential phase cells, MRSA was grown overnight in MHB and 100 μL suspension was used to inoculate 10 mL fresh MHB medium. The cells were incubated at 37 °C for 4–6 h to reach exponential phase.
For the experiments, both exponential and stationary phase cells were re-suspended separately in normal or nutrient-depleted mediums to OD600 = 0.5 (~10^8 CFU/mL). A 25 µL aliquot of this suspension was added to 475 μL of respective medium with or without test peptidomimetics/antibiotics in an eppendorf tube. […] The agar plates were incubated at 37 °C for 16–18 h and the colonies were counted (dilutions having colonies in the range of 10–100 were counted). […]

MRSA ATCC 33591 = assay: microbe, parasite or virus in culture; type: cell-based, Staphylococcus aureus; details: Staphylococcus aureus, MRSA ATCC 33591, read-out: Minimum inhibitory concentration, MIC
Description: An initial inoculum of mid-log phase 10^7 CFU/mL was used and MIC experiment was performed as described earlier. For serum/plasma stability assay a method as described previously was used with slight modifications. Briefly, 50 μL MHB medium containing desired concentration of test peptidomimetics was incubated with 50 µL mice plasma/fetal bovine serum for 3 h at 37 °C. After incubation, a 10 μL aliquot was taken out for MIC determination as described above. For the experiment, mid-log phase 2–5 × 10^5 CFU/mL were used as initial inoculum. For the growth control wells, an equivalent amount of plasma/FBS in the medium was also added to evaluate their effect on the viability of cells. A slight decrease in OD600 of cells incubated with mice plasma was observed compared to untreated growth control in MHB alone. The experiments were repeated on two different days and reproducible MIC values were observed.

With CN[C@H](CC(C)C)C(=O)N[C@H]1C(=O)N[C@@H](CC(N)=O)C(=O)N[C@H]2C(=O)N[C@H]3C(=O)N[C@H](C(=O)N[C@H](C(=O)O)c4cc(O)cc(O)c4-c4cc3ccc4O)[C@H](O)c3ccc(c(Cl)c3)Oc3cc2cc(c3O[C@@H]2O[C@H](CO)[C@@H](O)[C@H](O)[C@H]2O[C@H]2C[C@](C)(N)[C@H](O)[C@H](C)O2)Oc2ccc(cc2Cl)[C@H]1O [VAN, vancomycin] the “log reduction in CFU/mL” value ([1]; 4 × MIC) was ~ 1.1 log, the “log reduction in CFU/mL” value ([1]; 10 × MIC) was ~ 1.1 log and the MIC (MRSA ATCC 33591; after 3 h pre-incubation at 37 °C with fetal bovine serum (50%, v/v), inoculum 2–5 × 10^5 CFU/mL, repeated on two days) was 1.4 µg/mL (≈ 0.966 µM). For the same compound, the MIC (MRSA ATCC 33591; after 3 h pre-incubation at 37 °C with mice plasma (50%, v/v), inoculum 2–5 × 10^5 CFU/mL, repeated on two days) was 1.4 µg/mL (≈ 0.966 µM) and the MIC (MRSA ATCC 33591; initial inoculum 10^7 CFU/mL, mid-log phase) was 2.8 µg/mL (≈ 1.93 µM).
